Experimental data taken from ChEMBL document CHEMBL1201862, “PubChem BioAssay data set” (2004).
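96-well plates; 48 h exposure; 5 concentrations. Endpoints by linear interpolation between flanking doses. Not reached: highest tested concentration assigned. The concentration for 50% growth inhibition is given as GI50.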 Activity calls are given as the source filed them. Cut-off read from the data, not from the text of the source: active = GI50 up to about 1.1 µM and inactive = higher.

What was measured:
Assay in all cases: NCI-60 cell line screen, 48 h
PC-3 = system: PC-3
OVCAR-8 = system: OVCAR-8
DU-145 = system: DU-145
COLO 205 = system: COLO 205
SNB-19 = system: SNB-19
SN12C = system: SN12C
CAKI-1 = system: CAKI-1
KM12 = system: KM12
NCI-H522 = system: NCI-H522
M14 = system: M14
HL-60 = system: HL-60
BT-549 = system: BT-549
NCI-H460 = system: NCI-H460
OVCAR-4 = system: OVCAR-4
LOX IMVI = system: LOX IMVI
MDA-MB-231 = system: MDA-MB-231
MDA-N = system: MDA-N
Hs-578T = system: Hs-578T
HOP-62 = system: HOP-62
DMS-273 = system: DMS-273

Structure (SMILES) | GI50 (PC-3) | GI50 (OVCAR-8) | GI50 (DU-145) | GI50 (COLO 205) | GI50 (SNB-19) | GI50 (SN12C) | GI50 (CAKI-1) | GI50 (KM12) | GI50 (NCI-H522) | GI50 (M14) | GI50 (HL-60) | GI50 (BT-549) | GI50 (NCI-H460) | GI50 (OVCAR-4) | GI50 (LOX IMVI) | GI50 (MDA-MB-231) | GI50 (MDA-N) | GI50 (Hs-578T) | GI50 (HOP-62) | GI50 (DMS-273)
CC1CC[C@@]2(OC1)OC1C[C@H]3[C@@H]4CC[C@H]5CC(OC6OC(CO)C(O)C(OC7OC(CO)C(OC8OC(CO)C(O)C(OC9OC(CO)C(O)C(O)C9O)C8OC8OC(CO)C(O)C(O)C8O)C(O)C7O)C6O)[C@H](O)CC5(C)[C@H]4CCC3(C)C1[C@@H]2C (stereo partly drawn) | 1.29 µM (inactive) | 1.7 µM (inactive) | 5.47 µM (inactive) | 1.95 µM (inactive) | 2.2 µM (inactive) | 2.49 µM (inactive) | 4.11 µM (inactive) | 4.79 µM (inactive) | 1.66 µM (inactive) | 9.04 µM (inactive) | 2.57 µM (inactive) | 4.37 µM (inactive) | 7.06 µM (inactive) | 2.4 µM (inactive) | 2.29 µM (inactive) | 1.31 µM (inactive) | 6.59 µM (inactive) | 1.84 µM (inactive) | 2.28 µM (inactive) | 
Cc1cnc2[nH]c(-c3cccc(F)c3)cc(=O)c2c1 | 0.0239 µM (active) | 0.0582 µM (active) | 0.0459 µM (active) | 0.0214 µM (active) | 0.0546 µM (active) | 0.0687 µM (active) | 0.0317 µM (active) | 0.0327 µM (active) | 0.0255 µM (active) | 0.0342 µM (active) | 0.0186 µM (active) | 0.0757 µM (active) | 0.0411 µM (active) | 1.31 µM (inactive) | 0.0668 µM (active) | 0.0505 µM (active) | 0.0112 µM (active) | 0.0121 µM (active) | 0.0662 µM (active) | 
COC(=O)c1cc(CC2Cc3cc4c(cc3C2=O)CCC4)cc2c1CCC2 (stereo not drawn) | 15.2 µM (inactive) | > 100 µM (inactive) | > 100 µM (inactive) | 93.3 µM (inactive) | > 100 µM (inactive) | > 100 µM (inactive) | 64.6 µM (inactive) | > 100 µM (inactive) | 54.3 µM (inactive) | 52.1 µM (inactive) | > 100 µM (inactive) | 60 µM (inactive) | > 100 µM (inactive) | 33.2 µM (inactive) | > 100 µM (inactive) | > 100 µM (inactive) | 70.6 µM (inactive) | 24.8 µM (inactive) | 53.1 µM (inactive) | 
CC(C)CC(CNC(Cc1ccc(Cl)cc1)C(N)=O)NC(=O)C(Cc1c[nH]cn1)NC(=O)CNC(=O)C(NC(=O)C(C)NC(=O)C(Cc1c[nH]c2ccccc12)NC(=O)C(CCC(=O)O)NC(=O)C(N)Cc1ccccc1)C(C)C (stereo not drawn) |  | > 133 µM (inactive) |  | > 133 µM (inactive) | > 133 µM (inactive) | > 133 µM (inactive) | > 133 µM (inactive) | > 133 µM (inactive) |  |  | > 133 µM (inactive) |  | > 133 µM (inactive) | > 133 µM (inactive) |  |  |  |  | > 133 µM (inactive) | > 133 µM (inactive)
CN(O)C(=O)CCC(NC(=O)CCC(N)C(=O)O)C(=O)NCC(=O)O (stereo not drawn) | > 100 µM (inactive) | > 100 µM (inactive) | > 100 µM (inactive) | > 100 µM (inactive) | > 100 µM (inactive) | > 100 µM (inactive) | > 100 µM (inactive) | > 100 µM (inactive) | > 100 µM (inactive) | > 100 µM (inactive) | > 100 µM (inactive) | > 100 µM (inactive) | > 100 µM (inactive) | > 100 µM (inactive) | > 100 µM (inactive) | > 100 µM (inactive) | > 100 µM (inactive) | > 100 µM (inactive) | > 100 µM (inactive) | 
O=C1C2CC(Cl)C(SSC3CC4C(=O)N(SC(Cl)(Cl)C(Cl)Cl)C(=O)C4CC3Cl)CC2C(=O)N1SC(Cl)(Cl)C(Cl)Cl (stereo not drawn) | 1.29 µM (inactive) | 1.45 µM (inactive) | 2.6 µM (inactive) | 1.78 µM (inactive) | 3.86 µM (inactive) | 1.91 µM (inactive) | 2.11 µM (inactive) | 5.04 µM (inactive) | 0.379 µM (active) | 1.21 µM (inactive) | 0.543 µM (active) | 1.7 µM (inactive) | 2.39 µM (inactive) | 2.13 µM (inactive) | 1.34 µM (inactive) | 1.54 µM (inactive) | 1.7 µM (inactive) | 2.37 µM (inactive) | 2.81 µM (inactive) | 
O=c1c2cccnc2ncn1CCCN1CCOCC1 |  | > 100 µM (inactive) |  | > 100 µM (inactive) | > 100 µM (inactive) | > 100 µM (inactive) | > 100 µM (inactive) | > 100 µM (inactive) | > 100 µM (inactive) | > 100 µM (inactive) |  |  | > 100 µM (inactive) | > 100 µM (inactive) | > 100 µM (inactive) |  |  |  | > 100 µM (inactive) | > 100 µM (inactive)
CC(C)(C)NC(=O)/C(=C\Sc1ccccc1)c1ccccc1 | > 76.2 µM (inactive) | > 60 µM (inactive) | > 100 µM (inactive) | > 71 µM (inactive) | > 100 µM (inactive) | > 100 µM (inactive) | > 100 µM (inactive) | > 100 µM (inactive) | 6.15 µM (inactive) | > 100 µM (inactive) | > 100 µM (inactive) | > 30.3 µM (inactive) | > 100 µM (inactive) | > 68.4 µM (inactive) | 20.3 µM (inactive) | > 95.5 µM (inactive) | 71.1 µM (inactive) | 72.1 µM (inactive) | > 100 µM (inactive) | 
